According to the supplement of paper PMC10307832:

Key:
Test in all cases: relative viability (nuclei count vs DMSO), 5 days (fraction); higher = more cells survive
Idelalisib + Dasatinib = compound: CC[C@H](Nc1ncnc2[nH]cnc12)c1nc2cccc(F)c2c(=O)n1-c1ccccc1 [Idelalisib] + Cc1nc(Nc2ncc(C(=O)Nc3c(C)cccc3Cl)s2)cc(N2CCN(CCO)CC2)n1 [Dasatinib] (partner 0.075 µM)
Outline: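 One day after seeding in 1536-well plates, lung cancer cell lines were dosed by pin tool. Dosing was either single-drug or a fixed anchor-drug dose plus five library-drug doses (not always all listed) in √10 steps. After 5 days, nuclei were stained in one fix-and-stain step and counted on 4× images, and relative viability is the nuclei count of treated wells over that of vehicle wells, given as the median of duplicate plates.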

Pemetrexed = compound: Nc1nc2[nH]cc(CCc3ccc(C(=O)N[C@@H](CCC(=O)O)C(=O)O)cc3)c2c(=O)[nH]1 [Pemetrexed]
Outline: (§1)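 Lung cancer cell lines were seeded into 1536-well plates, kept overnight at 37 °C and pinned with five library-drug doses (not always all listed) spaced by √10. After 5 days, nuclei were Hoechst-stained, imaged at 4× and counted with MetaXpress. Viability is treated-well nuclei over vehicle-well nuclei, taken as a median across plates. Plates needed control CV below 25% and at least one doubling.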

Idelalisib = compound: CC[C@H](Nc1ncnc2[nH]cnc12)c1nc2cccc(F)c2c(=O)n1-c1ccccc1 [Idelalisib]
Outline: as §1

Row | Cell Line | relative viability (Idelalisib + Dasatinib; first compound 0.04 µM) | relative viability (Idelalisib + Dasatinib; first compound 0.1265 µM) | relative viability (Idelalisib + Dasatinib; first compound 0.4 µM) | relative viability (Idelalisib + Dasatinib; first compound 1.265 µM) | relative viability (Idelalisib + Dasatinib; first compound 4 µM) | relative viability (Pemetrexed; 0.002 µM) | relative viability (Pemetrexed; 0.006325 µM) | relative viability (Pemetrexed; 0.02 µM) | relative viability (Pemetrexed; 0.06325 µM) | relative viability (Pemetrexed; 0.2 µM) | relative viability (Pemetrexed; 0.2 µM, anchor plate) | relative viability (Idelalisib; 0.04 µM) | relative viability (Idelalisib; 0.1265 µM) | relative viability (Idelalisib; 0.4 µM) | relative viability (Idelalisib; 1.265 µM) | relative viability (Idelalisib; 4 µM)
1 | H3255 | 0.442 | 0.342 | 0.386 | 0.391 | 0.312 | 0.819 | 1.03 | 0.986 | 1.07 | 0.827 | 0.587 | 1.06 | 0.946 | 0.925 | 0.959 | 0.879
2 | NCI-H1563 | 0.473 | 0.491 | 0.472 | 0.496 | 0.388 | 0.907 | 0.955 | 0.991 | 1.03 | 1.01 | 0.799 | 0.96 | 0.997 | 0.909 | 0.946 | 0.876
3 | LCLC-103H | 0.371 | 0.388 | 0.393 | 0.535 | 0.309 | 0.89 | 1.01 | 1.01 | 1.02 | 0.935 | 0.477 | 1.12 | 0.979 | 0.822 | 1.09 | 0.91
4 | NCI-H2347 | 0.416 | 0.346 | 0.25 | 0.292 | 0.325 | 0.931 | 0.965 | 1.14 | 0.9 | 0.655 | 0.42 | 1.1 | 1.03 | 0.904 | 1.14 | 0.866
5 | LK-2 | 0.277 | 0.294 |  | 0.273 | 0.283 | 0.854 | 0.925 | 1.06 | 0.868 | 0.685 | 0.284 | 1.22 | 1 |  | 1.06 | 0.87
6 | NCI-H2342 | 0.358 | 0.316 | 0.324 | 0.304 | 0.327 | 0.804 | 0.95 | 1.03 | 1.02 | 1.08 | 0.769 | 1.06 | 1.09 | 0.907 | 1.03 | 0.882
7 | HCC-15 | 0.614 | 0.591 | 0.52 | 0.674 | 0.491 | 0.823 | 0.948 | 1.09 | 0.978 | 0.402 | 0.227 | 1.12 | 1.04 | 0.914 | 1.13 | 1.02
8 | SW 1573 | 0.508 | 0.475 | 0.503 | 0.324 | 0.376 | 1.04 | 0.951 | 1.05 | 0.893 | 0.976 | 0.897 | 1.09 | 0.886 | 0.896 | 0.961 | 0.923
9 | NCI-H838 | 0.248 | 0.307 | 0.219 | 0.283 | 0.345 | 0.99 | 0.917 | 1.08 | 0.869 | 0.359 | 0.257 | 0.958 | 0.993 | 0.851 | 0.921 | 0.753
10 | RERF-LC-KJ | 0.808 | 0.829 | 0.726 | 0.687 | 0.668 | 0.958 | 0.969 | 1.03 | 0.995 | 0.746 | 0.486 | 1.11 | 0.99 | 0.955 | 0.959 | 0.817
11 | ChaGo-K-1 | 0.548 | 0.516 | 0.534 | 0.563 | 0.585 | 1.05 | 0.942 | 0.98 | 0.418 | 0.312 | 0.261 | 1.09 | 0.914 | 0.946 | 1.02 | 0.992
12 | NCI-H441 | 0.681 | 0.687 | 0.585 | 0.639 | 0.467 | 0.917 | 1.01 | 1.1 | 0.688 | 0.452 | 0.255 | 1.13 | 0.941 |  | 1.12 | 1.05
13 | NCI-H2170 | 0.661 | 0.473 | 0.536 | 0.383 | 0.554 | 0.952 | 0.928 | 1.04 | 1.01 |  |  | 1.01 | 1.02 | 0.88 | 0.885 | 0.807
14 | PC-14 | 0.273 | 0.266 | 0.248 | 0.0361 | 0.223 | 0.975 | 1.01 | 1.08 | 0.602 | 0.142 | 0.136 | 1.07 | 1.05 | 0.951 | 0.922 | 0.959
15 | NCI-H2009 | 0.335 | 0.302 | 0.266 | 0.252 | 0.197 | 0.905 | 0.953 | 1.14 | 0.997 | 0.976 | 1.03 | 0.998 | 1.02 | 0.974 | 1.06 | 1.04
16 | NCI-H1395 | 0.417 | 0.369 | 0.375 | 0.385 | 0.366 | 0.796 | 1.02 | 1.09 | 0.994 | 0.86 | 0.892 | 1.07 | 0.991 | 0.846 | 0.912 | 0.741
17 | NCI-H1437 | 0.378 | 0.46 | 0.307 | 0.453 | 0.478 | 0.741 | 0.974 | 0.998 | 0.704 | 0.493 | 0.319 | 1.01 | 0.995 | 0.965 | 1.12 | 1.05
18 | NCI-H647 | 0.194 | 0.203 |  | 0.173 | 0.127 | 0.734 | 1.01 | 1.04 | 0.883 | 0.289 | 0.182 | 1.01 | 1.08 | 0.719 | 0.847 | 0.702

Row | Cell Line | relative viability (Idelalisib + Dasatinib; first compound 0.04 µM) | relative viability (Idelalisib + Dasatinib; first compound 0.1265 µM) | relative viability (Idelalisib + Dasatinib; first compound 0.4 µM) | relative viability (Idelalisib + Dasatinib; first compound 1.265 µM) | relative viability (Idelalisib + Dasatinib; first compound 4 µM) | relative viability (Pemetrexed; 0.002 µM) | relative viability (Pemetrexed; 0.006325 µM) | relative viability (Pemetrexed; 0.02 µM) | relative viability (Pemetrexed; 0.06325 µM) | relative viability (Pemetrexed; 0.2 µM) | relative viability (Pemetrexed; 0.2 µM, anchor plate) | relative viability (Idelalisib; 0.04 µM) | relative viability (Idelalisib; 0.1265 µM) | relative viability (Idelalisib; 0.4 µM) | relative viability (Idelalisib; 1.265 µM) | relative viability (Idelalisib; 4 µM)
19 | NCI-H1793 | 0.379 | 0.372 | 0.294 | 0.374 | 0.323 | 0.909 | 0.807 | 0.986 | 0.987 | 0.93 | 0.923 | 1.01 | 1.02 | 0.569 | 0.846 | 0.545
20 | SK-MES-1 | 0.33 | 0.306 | 0.208 | 0.199 | 0.187 | 0.979 | 0.932 | 1.07 | 0.976 | 0.934 | 0.94 | 1.04 | 1.01 | 0.885 | 0.749 | 0.745
21 | NCI-H2087 | 0.966 | 0.906 | 0.696 | 1.03 | 0.514 | 0.926 | 0.875 | 1.15 | 1.05 | 0.639 | 0.684 | 1.09 | 1.13 | 0.868 | 1.12 | 0.749
22 | BEN | 0.305 | 0.318 | 0.32 | 0.364 | 0.31 | 0.964 | 1 | 1.06 | 0.947 | 0.769 | 0.829 | 1.05 | 0.883 | 0.975 | 0.968 | 0.875
23 | NCI-H3122 | 0.646 | 0.55 | 0.552 | 0.817 | 0.467 | 1.01 | 0.953 | 1.02 | 0.951 | 0.576 | 0.201 | 1.03 | 0.989 | 1 | 0.977 | 1.03
24 | LCLC-97TM1 | 0.938 | 0.846 | 0.807 | 0.946 | 0.88 | 0.913 | 0.891 | 0.93 | 1.02 |  |  | 1.17 | 0.92 | 0.777 | 1.09 | 0.911
25 | NCI-H2228 | 0.562 | 0.586 | 0.408 | 0.507 | 0.524 | 0.799 | 0.878 | 1.2 | 0.838 | 0.333 | 0.339 | 1.22 | 0.84 | 0.788 | 1.12 | 0.972
26 | COR-L23 | 0.442 | 0.42 | 0.388 | 0.455 | 0.417 | 0.998 | 0.979 | 1.04 | 0.375 | 0.211 | 0.2 | 1.12 | 1.05 | 0.931 | 1.14 | 0.949
27 | EMC-BAC-2 | 0.319 | 0.337 | 0.283 | 0.321 | 0.346 | 0.868 | 1.04 | 1.12 | 0.966 | 0.782 | 0.444 | 1.25 | 0.989 | 0.878 | 1.01 | 1.11
28 | NCI-H1944 | 0.241 | 0.205 | 0.169 | 0.196 | 0.202 | 0.716 | 0.99 | 1.04 | 0.956 | 0.969 | 0.619 | 1.21 | 0.943 | 0.785 | 1.01 | 0.803
29 | A-427 | 0.783 | 0.685 | 0.568 | 0.704 | 0.671 | 0.94 | 1.05 | 1.07 | 0.992 | 0.939 | 0.98 | 1.14 | 1.01 | 0.883 | 1.01 | 0.904
30 | NCI-H520 | 0.201 | 0.158 | 0.126 | 0.209 | 0.147 | 0.938 | 0.969 | 0.95 | 0.936 | 0.975 | 0.693 | 0.958 | 0.987 | 0.84 | 0.922 | 0.79
31 | NCI-H650 | 0.498 | 0.438 | 0.432 | 0.481 | 0.394 | 0.851 | 0.905 | 0.987 | 0.857 | 1.02 | 0.925 | 0.938 | 1.01 | 0.885 | 1.05 | 0.889
32 | COR-L 105 | 0.363 | 0.379 | 0.31 | 0.354 | 0.334 | 0.947 | 0.896 | 1.14 | 0.883 | 0.978 | 1.12 | 1.03 | 0.997 | 0.802 | 0.976 | 0.752
33 | NCI-H1755 | 0.399 | 0.456 | 0.312 | 0.366 | 0.338 | 0.872 | 0.983 | 1.01 | 0.995 | 0.879 | 0.47 | 1.01 | 1.01 | 0.955 | 0.926 | 0.949
34 | NCI-H2085 | 0.244 | 0.19 | 0.188 | 0.246 | 0.19 | 0.947 | 0.979 | 1.08 | 1.03 | 0.98 | 0.921 | 1.05 | 0.995 | 0.91 | 0.955 | 0.729
35 | NCI-H2023 | 0.625 | 0.549 | 0.438 | 0.487 | 0.375 | 0.762 | 0.87 | 1.11 | 0.802 | 0.292 | 0.249 | 1.05 | 0.973 | 0.792 | 0.818 | 0.968
36 | HOP-62 | 0.636 | 0.714 | 0.547 | 0.581 | 0.526 | 0.864 | 0.949 | 1.08 | 0.964 |  |  | 1.07 | 0.998 | 0.936 | 1.14 | 0.963
